Type in all cases: cell-based
One test deals with MYB mRNA. In words: Splicing RT-qPCR assay, MYB canonical (CJ) and alternative (AJ) junction mRNA. The following applies: Homo sapiens, A673 or K562 cells, 24 hours; for IC50: decrease in canonical junction mRNA; for AC50: increase in alternative junction mRNA. Summed up:
(§1)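 Housekeeping-normalized RT-qPCR of canonical and alternative junctions in lysates of A673 or K562 cells exposed 24 h to compound (11 points, 3-fold steps, max 10 uM).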

A further test has as its system Target C mRNA. In words: Gene panel canonical junction qPCR assay, Target C CJ mRNA decrease. The following applies: Homo sapiens, canonical junction qPCR, read-out: Target C IC50 (decrease in CJ mRNA levels). Summed up:
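A673 or K562 cells were treated with compound, and lysates underwent cDNA synthesis and qPCR with a CY5 5′-nuclease probe or primer spanning the canonical exon junction. ΔCt versus GAPDH, GUSB or PPIA was normalized to DMSO (2^(−ΔΔCt)), converted to percentage response and fitted four-parameter logistic for IC50.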
Background: Quantitative PCR measures a nucleic acid by following its amplification.

The test system of a further test is HTT mRNA. In words: Splicing RT-qPCR assay, HTT canonical (CJ) and alternative (AJ) junction mRNA. Particulars: Homo sapiens, A673 or K562 cells, 24 hours; for IC50: decrease in canonical junction mRNA; for AC50: increase in alternative junction mRNA. Summed up:
as §1

Our source for the IC50 and AC50 values is patent US20240409536A1, “COMPOUNDS AND METHODS FOR MODULATING SPLICING” (REMIX THERAPEUTICS INC., priority 2021, published 2024).

Where only a bound is given, the exact number is not on record here.

Take `Cc1c(O)c(NC(=O)c2ccc(N3C[C@@H](C)N[C@@H](C)C3)c3nccnc23)cc2cn(C)nc12` [Compound 310]: the IC50 is 100 to 1000 nM with MYB mRNA, more than 10000 nM in the test with Target C mRNA and more than 10000 nM in the test with HTT mRNA. Also, the AC50 was 100 to 1000 nM with MYB mRNA and more than 10000 nM in the test on HTT mRNA.

Regarding `Cc1cn2cc(NC(=O)c3ccc(N4C[C@@H](C)N[C@H](C)C4)c4nccnc34)cc(F)c2n1` [Compound 312], the IC50 in the test on MYB mRNA was less than 100 nM; in the test on Target C mRNA it was more than 10000 nM; in the test on HTT mRNA, 1000 to 10000 nM. In addition, the results for the AC50 in the test with MYB mRNA and with HTT mRNA were less than 100 nM and 1000 to 10000 nM, respectively.

With `Cc1cn2cc(NC(=O)c3ccc(N4C[C@H](C)N[C@@H](C)C4)c4nccnc34)cc(F)c2n1` [Compound 313], the IC50 with MYB mRNA is less than 100 nM; in the test on Target C mRNA, 1000 to 10000 nM; with HTT mRNA, 1000 to 10000 nM. The AC50 in the test with MYB mRNA is less than 100 nM; with HTT mRNA, 1000 to 10000 nM.

In the case of `Cc1cn2cc(NC(=O)c3ccc(N4CC[C@@H](N)C4)c4nccnc34)cc(F)c2n1` [Compound 315], the concentration for half-maximal inhibition (IC50) in the test on MYB mRNA is 100 to 1000 nM; in the test on Target C mRNA, more than 10000 nM; in the test with HTT mRNA it was more than 10000 nM. Also, the AC50 in the test with MYB mRNA and in the test on HTT mRNA was 1000 to 10000 nM in each case.

As to `Cc1cn2cc(NC(=O)c3ccc(NC4CCNC4)c4nccnc34)cc(F)c2n1` (stereo not drawn) [Compound 316], the IC50 is 100 to 1000 nM with MYB mRNA, more than 10000 nM in the test on Target C mRNA and more than 10000 nM with HTT mRNA. Also, the AC50 with MYB mRNA and in the test with HTT mRNA was 1000 to 10000 nM throughout.

Consider `C[C@@H]1CN(c2ccc(C(=O)Nc3cc(F)c4nn(C)cc4c3)c3nccnc23)C[C@@H](C)N1` [Compound 335], for which the IC50 was 100 to 1000 nM in the test with MYB mRNA, more than 10000 nM in the test on Target C mRNA and 1000 to 10000 nM in the test on HTT mRNA. The AC50 is 100 to 1000 nM in the test on MYB mRNA and more than 10000 nM in the test with HTT mRNA.

For `Cc1cn2cc(NC(=O)c3ccc(N4CCC5(CCN5)C4)c4nccnc34)cc(F)c2n1` (stereo not drawn) [Compound 339], the results for the IC50 in the test with MYB mRNA, in the test with Target C mRNA and in the test on HTT mRNA were 100 to 1000 nM, 1000 to 10000 nM and 1000 to 10000 nM, respectively. Moreover, the concentration at half-maximal activity (AC50) in the test with MYB mRNA and in the test on HTT mRNA was 1000 to 10000 nM in each case.

With `Cc1cn2cc(NC(=O)c3ccc(N4C[C@@H](C)N[C@@H](C)C4)c4cccnc34)cc(F)c2n1` [Compound 340], the IC50 in the test with MYB mRNA is 100 to 1000 nM; with Target C mRNA it was 1000 to 10000 nM; with HTT mRNA, 1000 to 10000 nM. For the same compound, the AC50 with MYB mRNA fell in the range of 100 to 1000 nM; in the test with HTT mRNA it was 1000 to 10000 nM.

As for `Cc1cn2cc(NC(=O)c3ccc(N4CCNC5(CC5)C4)c4cccnc34)cc(F)c2n1` [Compound 341], the IC50 in the test on MYB mRNA was 100 to 1000 nM; in the test on Target C mRNA it was 1000 to 10000 nM; with HTT mRNA it was 1000 to 10000 nM. Also, the AC50 in the test on MYB mRNA lay in the range of 100 to 1000 nM; in the test with HTT mRNA it was 1000 to 10000 nM.

For the compound `COc1nc2c(F)cc(NC(=O)c3ccc(N4C[C@@H](C)N[C@@H](C)C4)c4nccnc34)cc2o1` [Compound 342], the IC50 with MYB mRNA, in the test with Target C mRNA and with HTT mRNA was more than 10000 nM in each case. The AC50 in the test with MYB mRNA and in the test with HTT mRNA was more than 10000 nM throughout.

For the compound `C[C@@H]1CN(c2ccc(C(=O)Nc3cc(F)c4cnccc4c3)c3nccnc23)C[C@H](C)N1` [Compound 343], the IC50 with MYB mRNA, with Target C mRNA and with HTT mRNA was 1000 to 10000 nM each time. The AC50 with MYB mRNA and in the test with HTT mRNA was 1000 to 10000 nM in each case.

In the case of `C[C@@H]1CN(c2ccc(C(=O)Nc3cc(F)c4ncccc4c3)c3nccnc23)C[C@H](C)N1` [Compound 344], the values for the IC50 in the test on MYB mRNA, in the test on Target C mRNA and with HTT mRNA were 1000 to 10000 nM, more than 10000 nM and more than 10000 nM, respectively. Also, the AC50 in the test on MYB mRNA and with HTT mRNA was more than 10000 nM throughout.

Turning to `Cc1cn2cc(NC(=O)c3ccc(N4CCNCC4)c4nncnc34)cc(F)c2n1` [Compound 345], the values for the IC50 in the test with MYB mRNA, with Target C mRNA and with HTT mRNA were 100 to 1000 nM, 1000 to 10000 nM and 1000 to 10000 nM, respectively. For the same compound, the AC50 with MYB mRNA is 100 to 1000 nM; in the test with HTT mRNA it was 1000 to 10000 nM.

As to `Cc1cn2cc(NC(=O)c3ccc(N4C[C@@H](C)N[C@@H](C)C4)c4ncc(OC5CC5)nc34)cc(F)c2n1` [Compound 351], the IC50 with MYB mRNA lay within 100 to 1000 nM; in the test on Target C mRNA it was 1000 to 10000 nM; with HTT mRNA, 1000 to 10000 nM. The concentration at half-maximal activity (AC50) was 100 to 1000 nM in the test with MYB mRNA and more than 10000 nM with HTT mRNA.

`COc1nc(NC(=O)c2ccc(N3C[C@@H](C)N[C@@H](C)C3)c3nccnc23)cc2cn(C)nc12` [Compound 352]: the values for the IC50 in the test with MYB mRNA, with Target C mRNA and in the test on HTT mRNA were 100 to 1000 nM, 1000 to 10000 nM and 1000 to 10000 nM, respectively. The figures for the AC50 in the test on MYB mRNA and in the test on HTT mRNA were 100 to 1000 nM and 1000 to 10000 nM, respectively.

In the case of `Cc1ccc2cc(NC(=O)c3ccc(N4C[C@@H](C)N[C@@H](C)C4)c4nccnc34)cc(F)c2n1` [Compound 353], the IC50 with MYB mRNA, with Target C mRNA and in the test with HTT mRNA was more than 10000 nM in each case. Also, the AC50 with MYB mRNA and in the test with HTT mRNA was more than 10000 nM each time.

Turning to `Cc1cn2nc(NC(=O)c3ccc(N4C[C@@H](C)N[C@@H](C)C4)c4nccnc34)cc2c(C)n1` [Compound 354], the IC50 in the test on MYB mRNA, in the test on Target C mRNA and with HTT mRNA was 100 to 1000 nM throughout. Also, the AC50 in the test with MYB mRNA and in the test with HTT mRNA was 100 to 1000 nM each time.

In the case of `Cc1cn2cc(NC(=O)c3ccc(N4C[C@@H](C)N(O)[C@@H](C)C4)c4nccnc34)cc(F)c2n1` [Compound 355], the IC50 was 100 to 1000 nM with MYB mRNA, more than 10000 nM in the test on Target C mRNA and more than 10000 nM in the test on HTT mRNA. The results for the AC50 in the test on MYB mRNA and with HTT mRNA were 100 to 1000 nM and 1000 to 10000 nM, respectively.

Take `Cc1cn2cc(NC(=O)c3ccc(N4CCC(N)(CF)CC4)c4nccnc34)cc(F)c2n1` [Compound 356]: the results for the IC50 in the test with MYB mRNA, with Target C mRNA and in the test on HTT mRNA were 1000 to 10000 nM, more than 10000 nM and 1000 to 10000 nM, respectively. The AC50 with MYB mRNA is 1000 to 10000 nM; with HTT mRNA, more than 10000 nM.

Turning to `COc1cn2cc(NC(=O)c3ccc(N4C[C@@H](C)N[C@@H](C)C4)c4nccnc34)cc(F)c2n1` [Compound 357], the IC50 in the test with MYB mRNA, with Target C mRNA and in the test with HTT mRNA was more than 10000 nM in each case. In addition, the AC50 is 1000 to 10000 nM in the test with MYB mRNA and more than 10000 nM with HTT mRNA.

For the compound `Cc1cn2cc(NC(=O)c3ccc(N4C[C@@H](C)N[C@@H](C)C4)c4ncccc34)cc(F)c2n1` [Compound 358], the IC50 in the test with MYB mRNA, with Target C mRNA and in the test with HTT mRNA was more than 10000 nM in each case. Moreover, the AC50 with MYB mRNA and with HTT mRNA was more than 10000 nM throughout.

With `Cc1cn2cc(NC(=O)c3ccc(N4C[C@@H](C)N[C@@H](C)C4)c4nccnc34)nc2c(C)n1` [Compound 359], the IC50 in the test on MYB mRNA is 100 to 1000 nM; in the test on Target C mRNA, more than 10000 nM; with HTT mRNA it was more than 10000 nM. In addition, the AC50 is 100 to 1000 nM in the test on MYB mRNA and more than 10000 nM in the test with HTT mRNA.

On to `C[C@@H]1CN(c2ccc(C(=O)Nc3cc(F)c4nc(O)cn4c3)c3nccnc23)C[C@H](C)N1` [Compound 360], for which the IC50 with MYB mRNA, with Target C mRNA and in the test with HTT mRNA was more than 10000 nM in each case. Also, the AC50 in the test on MYB mRNA and in the test with HTT mRNA was more than 10000 nM each time.

With `Cc1cn2cc(NC(=O)c3ccc(N4CCN[C@H](CO)C4)c4nccnc34)cc(F)c2n1` [Compound 362], the IC50 with MYB mRNA was in the range of 100 to 1000 nM; in the test on Target C mRNA, 1000 to 10000 nM; in the test on HTT mRNA, 1000 to 10000 nM. Moreover, the AC50 with MYB mRNA fell in the range of 100 to 1000 nM; with HTT mRNA, 1000 to 10000 nM.

One may read the IC50 as the concentration needed to halve the response being measured. For orientation: AC50 means the midpoint of the concentration-response curve, whichever way the signal moves.
